Test results from the supplement of paper PMC10307832.

Columns and labels:
Assay in all cases: relative viability (nuclei count vs DMSO), 5 days (fraction); higher = more cells survive
Neratinib + Bortezomib = compound: CCOc1cc2ncc(C#N)c(Nc3ccc(OCc4ccccn4)c(Cl)c3)c2cc1NC(=O)/C=C/CN(C)C [Neratinib] + CC(C)C[C@H](NC(=O)[C@H](Cc1ccccc1)NC(=O)c1cnccn1)B(O)O [Bortezomib] (partner 0.002 µM)
Procedure, shortened: (§1)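 Cells from lung cancer lines were seeded into 1536-well plates and, one day later, dosed by pin tool. Treatments were either a single drug or a fixed dose of an anchor drug with five library-drug doses (not always all listed) in √10 steps. After 5 days, nuclei were stained in a one-step fixation (final 0.05% Triton X-100, 1% formaldehyde, 1 ug/ml Hoechst) and counted on 4× images, and relative viability is the treated-to-vehicle nuclei ratio, as the median of duplicate plates.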

Neratinib + Luminespib = compound: CCOc1cc2ncc(C#N)c(Nc3ccc(OCc4ccccn4)c(Cl)c3)c2cc1NC(=O)/C=C/CN(C)C [Neratinib] + CCNC(=O)c1noc(-c2cc(C(C)C)c(O)cc2O)c1-c1ccc(CN2CCOCC2)cc1 [Luminespib] (partner 0.01 µM)
Procedure, shortened: as §1

Neratinib + Dasatinib = compound: CCOc1cc2ncc(C#N)c(Nc3ccc(OCc4ccccn4)c(Cl)c3)c2cc1NC(=O)/C=C/CN(C)C [Neratinib] + Cc1nc(Nc2ncc(C(=O)Nc3c(C)cccc3Cl)s2)cc(N2CCN(CCO)CC2)n1 [Dasatinib] (partner 0.075 µM)
Procedure, shortened: as §1

Neratinib + Palbociclib = compound: CCOc1cc2ncc(C#N)c(Nc3ccc(OCc4ccccn4)c(Cl)c3)c2cc1NC(=O)/C=C/CN(C)C [Neratinib] + CC(=O)c1c(C)c2cnc(Nc3ccc(N4CCNCC4)cn3)nc2n(C2CCCC2)c1=O [Palbociclib] (partner 0.5 µM)
Procedure, shortened: as §1

Cell Line	relative viability (Neratinib + Bortezomib; first compound 0.01 µM)	relative viability (Neratinib + Bortezomib; first compound 0.03162 µM)	relative viability (Neratinib + Bortezomib; first compound 0.1 µM)	relative viability (Neratinib + Bortezomib; first compound 0.3162 µM)	relative viability (Neratinib + Luminespib; first compound 0.01 µM)	relative viability (Neratinib + Luminespib; first compound 0.03162 µM)	relative viability (Neratinib + Luminespib; first compound 0.1 µM)	relative viability (Neratinib + Luminespib; first compound 0.3162 µM)	relative viability (Neratinib + Luminespib; first compound 1 µM)	relative viability (Neratinib + Dasatinib; first compound 0.01 µM)	relative viability (Neratinib + Dasatinib; first compound 0.03162 µM)	relative viability (Neratinib + Dasatinib; first compound 0.1 µM)	relative viability (Neratinib + Dasatinib; first compound 0.3162 µM)	relative viability (Neratinib + Dasatinib; first compound 1 µM)	relative viability (Neratinib + Palbociclib; first compound 0.01 µM)	relative viability (Neratinib + Palbociclib; first compound 0.03162 µM)	relative viability (Neratinib + Palbociclib; first compound 0.1 µM)	relative viability (Neratinib + Palbociclib; first compound 0.3162 µM)	relative viability (Neratinib + Palbociclib; first compound 1 µM)	relative viability (Neratinib + Bortezomib; first compound 1 µM)
NCI-H2009	0.998	1.08	0.856	0.825	0.998	1.01	0.828	1.01	0.962	0.3	0.347	0.301	0.292	0.206	0.176	0.266	0.21	0.243	0.208	–
NCI-H1437	0.639	–	0.565	0.385	1.21	1.08	1	1.11	1.09	0.443	0.396	0.475	0.278	0.3	0.322	0.329	0.293	0.268	0.341	0.475
NCI-H647	–	0.914	0.586	0.558	0.308	0.128	0.0778	0.153	0.118	0.171	0.198	0.207	0.129	0.0912	0.446	0.545	0.393	0.344	0.188	0.664
201T	1.08	1.1	1.06	1.12	1.08	1.02	0.977	1.1	0.931	0.629	0.539	–	0.49	0.6	0.361	0.351	0.343	0.321	0.335	1.09
ChaGo-K-1	1.06	1.04	0.873	0.745	0.753	0.672	0.604	0.595	–	0.561	0.62	0.555	0.571	0.544	0.997	0.986	0.93	0.956	0.867	0.912
NCI-H1650	0.207	0.201	0.206	0.228	0.201	0.186	0.204	0.228	0.203	0.309	0.31	0.307	0.304	0.376	0.349	0.313	0.3	0.262	0.276	0.197
LOU-NH91	0.477	0.51	0.484	0.507	0.38	0.328	0.338	0.331	0.287	0.579	0.504	0.448	0.413	0.377	0.504	0.547	0.557	0.462	0.536	0.559
HOP-62	0.872	0.855	0.624	0.541	0.917	0.974	0.893	0.884	0.927	0.636	0.67	0.602	0.686	0.676	0.455	0.475	0.383	–	0.303	1
NCI-H1915	1.06	1.03	0.952	0.874	0.845	0.818	0.422	0.792	0.462	0.384	0.339	0.218	0.332	0.287	0.538	0.537	0.504	0.528	0.414	0.962
NCI-H322M	1.15	1.2	1.1	0.809	0.852	0.796	0.701	0.392	0.352	0.24	0.237	0.237	0.228	0.293	0.468	0.475	0.417	0.376	0.41	0.36
NCI-H1651	1.07	1.13	0.86	0.902	0.723	1.32	0.654	0.896	0.546	0.424	0.505	0.371	0.452	0.32	0.542	0.558	0.499	0.45	0.467	0.852
RERF-LC-KJ	1.19	1.07	0.87	0.878	1.45	1.18	1.16	1.14	0.531	0.941	0.822	0.681	0.653	0.335	1.16	1.16	1.08	0.84	0.467	0.596
NCI-H661	0.779	0.697	0.675	0.446	0.966	0.905	0.593	0.587	0.372	0.924	0.741	0.5	0.317	0.338	0.437	0.388	0.323	0.318	0.298	0.24
NCI-H1993	–	1.11	0.763	0.646	0.717	0.83	0.719	0.599	0.511	0.638	0.607	0.558	0.589	0.575	0.768	0.578	0.522	0.466	0.568	–
NCI-H460	1.22	1.36	–	1.27	0.0344	0.0284	0.0244	0.0268	0.0188	0.524	0.527	0.446	0.455	0.317	0.19	0.215	0.171	0.166	0.0933	0.587
NCI-H838	0.921	1.12	0.729	0.627	0.252	0.269	0.258	0.22	0.21	0.272	0.255	0.278	0.287	0.267	0.223	0.23	0.216	0.176	0.176	0.328
NCI-H1792	1.01	0.965	0.897	0.896	0.458	0.466	0.365	0.358	0.381	0.769	0.905	0.738	0.684	0.368	0.813	0.71	0.414	0.616	0.445	0.745
NCI-H1355	1.23	1.3	1.16	1.02	0.709	0.821	0.725	0.6	0.465	0.754	0.745	0.629	0.584	0.39	0.38	0.41	0.348	0.302	0.274	0.752
NCI-H2405	1.05	1.09	0.708	0.998	0.859	0.73	0.562	0.577	0.354	0.225	0.23	0.218	0.212	0.199	0.56	0.579	0.534	0.567	0.419	0.954
LCLC-97TM1	0.786	0.347	0.739	0.41	0.823	0.837	0.762	0.684	0.589	1.05	0.859	0.858	0.726	0.693	0.258	0.237	0.228	–	0.117	0.298
EMC-BAC-2	1.25	1.13	0.979	0.99	1.38	1.17	1.08	0.976	0.597	0.368	0.342	0.302	0.33	0.248	0.538	0.526	0.492	0.532	0.41	0.889
NCI-H1975	0.36	0.428	0.423	0.252	0.289	0.174	0.311	0.123	0.186	0.443	0.505	0.313	0.124	0.146	0.658	0.739	0.522	0.337	0.176	0.191
BEN	0.844	1.02	0.72	0.615	0.605	0.367	0.378	0.307	0.243	0.329	0.305	0.319	0.3	0.414	0.459	0.47	0.45	0.457	0.447	0.635
NCI-H2347	1.01	1.12	0.808	0.721	0.472	0.385	–	0.483	0.289	0.282	0.35	–	0.375	0.2	0.401	0.41	0.341	0.494	0.479	1.11
NCI-H650	0.94	1.07	1.08	–	0.814	0.888	0.621	0.722	0.392	0.489	0.493	0.477	0.416	0.463	0.372	0.306	0.293	0.294	0.371	0.852
CAL-12T	0.949	1.01	0.785	0.508	0.445	0.393	0.291	0.104	0.123	0.325	0.475	0.212	0.13	0.122	0.41	0.478	0.179	0.118	0.184	0.335
EPLC-272H	0.841	0.994	0.881	0.775	–	0.616	0.464	0.315	0.135	–	0.457	0.284	0.208	0.152	0.357	0.309	0.224	0.295	0.292	0.65
